Publication PMC3427755 (Organic & biomolecular chemistry, 2012)
“Also recorded” adds a separate entry of the source. Like-named read-outs stand apart in the source and are kept apart here.

Legend:
[1] = target: B-Raf^V600E (Homo sapiens, UniProt P15056, V600E); assay: In vitro B-Raf kinase assay; type: biochemical; details: for Inhibition rate B-Raf^V600E: [I]=1μM
[2] = target: B-Raf^WT (Homo sapiens, UniProt P15056); assay: In vitro B-Raf kinase assay; type: biochemical; details: for inhibition at 2 µM: read-out: Inhibition rate (%) B-Raf; for Inhibition rate (%) B-Raf: 2μM of compound; for Inhibition rate B-Raf: [I]=1μM
[3] = system: A375 (B-Raf^V600E) malignant melanoma cells; assay: Anti-proliferation activity, A375 melanoma cells; type: cell-based, human; details: for inhibition at 10 µM: Homo sapiens, A-375, read-out: Tumor growth inhibition rate A375(B-Raf^V600E); for Tumor growth inhibition rate A375(B-Raf^V600E): [I]=10μM
[4] = system: SW620 (B-Raf^WT) human colonic carcinoma cells; assay: Anti-proliferation activity, SW620 cells; type: cell-based; details: SW-620, read-out: Tumor growth inhibition rate SW620 (B-Raf)
[5] = read-out: Inhibition rate (%) B-Raf^V600E, 0.5μM of compound
[6] = read-out: Inhibition rate (%) B-Raf^V600E, 2μM of compound
[7] = read-out: Inhibition rate (%) B-Raf^V600E

B-Raf^WT, sequence (P15056 433-726): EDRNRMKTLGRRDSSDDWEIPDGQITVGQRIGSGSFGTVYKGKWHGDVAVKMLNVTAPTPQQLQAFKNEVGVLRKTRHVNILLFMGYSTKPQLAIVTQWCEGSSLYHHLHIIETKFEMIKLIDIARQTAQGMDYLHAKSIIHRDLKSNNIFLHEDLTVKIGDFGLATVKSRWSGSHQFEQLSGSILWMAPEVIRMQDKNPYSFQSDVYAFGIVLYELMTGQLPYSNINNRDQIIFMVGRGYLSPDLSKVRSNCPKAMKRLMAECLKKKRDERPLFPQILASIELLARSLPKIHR
B-Raf^V600E, sequence (P15056 433-726 V600E): as the sequence (P15056 433-726) above, with V168E counted along it

Q: Which results are given for `O=C1C(=Cc2ccc(-c3ccccc3[N+](=O)[O-])o2)Cc2ccccc21` [Compound 16a, 2-[5-(2-nitro-phenyl)-furan-2-ylmethylene]-indan-1-one]?
A: inhibition at 0.5 µM [1, 5]: 47%; inhibition at 2 µM [1, 6]: > 50%; inhibition at 2 µM [2]: 11%; inhibition at 10 µM [3]: 16.5%

Q: With `O=C1C(=Cc2ccc(-c3cccc(C(F)(F)F)c3)o2)Cc2ccccc21` [Compound 16b, 2-[5-(3-trifluomethyl-phenyl)-furan-2-ylmethylene]-indan-1-one] as the compound, how does the “Inhibition rate (%) B-Raf^V600E” value ([1]; 2μM of compound) read?
A: 22% n.d.

Q: Which “Inhibition rate (%) B-Raf^V600E” value ([1]; 0.5μM of compound) does the source give for `O=C1C(=Cc2ccc(-c3cccc(C(F)(F)F)c3)o2)Cc2cc(Cl)ccc21` [Compound 16c, 2-[5-(3-trifluomethyl-phenyl)-furan-2-ylmethylene]-5-chloro-indan-1-one] here?
A: 42%

Q: And the “Tumor growth inhibition rate A375(B-Raf^V600E)” value [3]?
A: 3.2

Q: How did the inhibition at 2 µM [1, 6] turn out when `O=C1C(=Cc2ccc(-c3ccc([N+](=O)[O-])cc3)o2)Cc2ccccc21` [Compound 16d, 2-[5-(4-nitro-phenyl)-furan-2-ylmethylene]-indan-1-one] was run?
A: 34%

Q: How did the inhibition at 0.5 µM [1, 5] turn out when `O=C1C(=Cc2ccc(-c3ccc(Cl)cc3)o2)Cc2ccccc21` [Compound 16e, 2-[5-(4-chloro-phenyl)-furan-2-ylmethylene]-indan-1-one] was run?
A: 41%

Q: And the inhibition at 2 µM [1, 6]?
A: > 50%

Q: What about the inhibition at 10 µM [3] of the same compound?
A: 5.2%

Q: Which inhibition at 2 µM [1, 6] does the source give for `O=C1C(=Cc2ccc(-c3ccc(Br)cc3)o2)Cc2ccccc21` [Compound 16f, 2-[5-(4-bromo-phenyl)-furan-2-ylmethylene]-indan-1-one] here?
A: 42%

Q: For `O=C1C(=Cc2ccc(-c3cc(C(F)(F)F)ccc3Cl)o2)Cc2ccccc21` [Compound 16g, 2-[5-(2-chloro-5-trifluomethyl)-furan-2-ylmethylene]-indan-1-one], which “Inhibition rate (%) B-Raf^V600E” value ([1]; 2μM of compound) is on record?
A: 44% n.d.

Q: With `O=C1Nc2ccccc2C1=Cc1ccc(-c2cccc(C(F)(F)F)c2)o1` [Compound 17a, 3-[5-(3-trifluomethyl-phenyl)-furan-2-ylmethylene]-1,3-dihydro-indol-2-one] as the compound, how does the “Inhibition rate (%) B-Raf^V600E” value ([1]; 2μM of compound) read?
A: 34% n.d.

Q: How did the “Inhibition rate (%) B-Raf^V600E” value ([1]; 2μM of compound) turn out when `O=C1Nc2cc(Cl)ccc2C1=Cc1ccc(-c2cccc(C(F)(F)F)c2)o1` [Compound 17b, 3-[5-(3-trifluomethyl-phenyl)-furan-2-ylmethylene]-6-chloro-1,3-dihydro-indol-2-one] was run?
A: 38% n.d.

Q: What does the source list for `O=C1Nc2ccc(Cl)cc2C1=Cc1ccc(-c2cccc(C(F)(F)F)c2)o1` [Compound 17c, 3-[5-(3-trifluomethyl-phenyl)-furan-2-ylmethylene]-5-chloro-1,3-dihydro-indol-2-one]?
A: Inhibition rate (%) B-Raf^V600E ([1]; 2μM of compound): 23% n.d.; Inhibition rate (%) B-Raf [2]: 17% n.d.

Q: Which “Inhibition rate (%) B-Raf^V600E” value ([1]; 2μM of compound) does the source give for `O=C1Nc2ccccc2C1=Cc1ccc(-c2cc(C(F)(F)F)ccc2Cl)o1` [Compound 17d, 3-[5-(2-chloro-5-trifluomethyl)-furan-2-ylmethylene]-1,3-dihydro-indol-2-one] here?
A: 23% n.d.

Q: `O=C1Nc2ccc(Cl)cc2C1=Cc1ccc(-c2cc(C(F)(F)F)ccc2Cl)o1` [Compound 17e, 3-[5-(2-chloro-5-trifluomethyl)-furan-2-ylmethylene]-5-chloro-1,3-dihydro-indol-2-one] was tested. Which “Inhibition rate (%) B-Raf^V600E” value ([1]; 2μM of compound) did it give?
A: 34% n.d.

Q: For `O=C1Nc2cc(Cl)ccc2C1=Cc1ccc(-c2cc(C(F)(F)F)ccc2Cl)o1` [Compound 17f, 3-[5-(2-chloro-5-trifluomethyl)-furan-2-ylmethylene]-6-chloro-1,3-dihydro-indol-2-one], which “Inhibition rate (%) B-Raf^V600E” value ([1]; 2μM of compound) is on record?
A: 34% n.d.

Q: For `O=C1NC(=O)C(=Cc2ccc(-c3ccccc3[N+](=O)[O-])o2)S1` [Compound 19a, 5-[5-(2-nitro-phenyl)-furan-2ylmethylene]-thiazolidine-2,4-dione], which inhibition at 2 µM [1, 6] is on record?
A: 7%

Q: For `COc1cccc(-c2ccc(C=C3SC(=O)NC3=O)o2)c1` [Compound 19b, 5-[5-(3-methoxy-phenyl)-furan-2ylmethylene]-thiazolidine-2,4-dione], which inhibition at 2 µM [1, 6] is on record?
A: 34%

Q: For `O=C1NC(=O)C(=Cc2ccc(-c3ccc([N+](=O)[O-])cc3)o2)S1` [Compound 19c, 5-[5-(4-nitro-phenyl)-furan-2ylmethylene]-thiazolidine-2,4-dione], which inhibition at 2 µM [1, 6] is on record?
A: 48%

Q: For `Cc1ccc(-c2ccc(C=C3SC(=O)NC3=O)o2)cc1` [Compound 19g, 5-[5-(4-methyl-phenyl)-furan-2ylmethylene]-thiazolidine-2,4-dione], which inhibition at 2 µM [1, 6] is on record?
A: 41%

Q: Which results are given for `COc1ccc(-c2ccc(C=C3SC(=O)NC3=O)o2)cc1` [Compound 19h, 5-[5-(4-methoxy-phenyl)-furan-2ylmethylene]-thiazolidine-2,4-dione]?
A: inhibition at 2 µM [1, 6]: 41%; inhibition at 2 µM [2]: 3%

Q: How did the inhibition at 2 µM [1, 6] turn out when `CC(C)(C)c1ccc(-c2ccc(C=C3SC(=O)NC3=O)o2)cc1` [Compound 19i, 5-[5-(4-tert-butyl-phenyl)-furan-2ylmethylene]-thiazolidine-2,4-dione] was run?
A: 34%

Q: What about the inhibition at 2 µM [2] of the same compound?
A: 17%

Q: With `O=C1NC(=O)C(=Cc2ccc(-c3ccc4ccccc4c3)o2)S1` [Compound 19j, 5-[5-(2-naphthyl)-furan-2ylmethylene]-thiazolidine-2,4-dione] as the compound, how does the inhibition at 2 µM [1, 6] read?
A: 51%

Q: For `O=C1NC(=O)C(=Cc2ccc(-c3cc(C(F)(F)F)ccc3Cl)o2)S1` [Compound 19k, 5-[5-(2-chloro-5-trifluomethyl)-furan-2ylmethylene]-thiazolidine-2,4-dione], which “Inhibition rate (%) B-Raf^V600E” value ([1]; 2μM of compound) is on record?
A: 37% n.d.

Q: And the “Inhibition rate (%) B-Raf” value [2]?
A: 18% n.d.

Q: Which results are given for `O=C1NC(=S)NC(=O)C1=Cc1ccc(-c2ccccc2[N+](=O)[O-])o1` [Compound 22a, 5-[5-(2-nitro-phenyl)-furan-2ylmethylene]-2-thioxo-dihydro-pyrimidine-4,6-dione]?
A: inhibition at 0.5 µM [1, 7]: 48%; inhibition at 2 µM [1, 7]: 61%; inhibition at 2 µM [2]: 38%

Q: Which results are given for `COc1cccc(-c2ccc(C=C3C(=O)NC(=S)NC3=O)o2)c1` [Compound 22b, 5-[5-(3-methoxy-phenyl)-furan-2ylmethylene]-2-thioxo-dihydro-pyrimidine-4,6-dione]?
A: inhibition at 0.5 µM [1, 7]: 34%; inhibition at 2 µM [1, 7]: 63%; inhibition at 2 µM [2]: 6%; inhibition at 10 µM [3]: 26.2%

Q: `O=C1NC(=S)NC(=O)C1=Cc1ccc(-c2ccc([N+](=O)[O-])cc2)o1` [Compound 22c, 5-[5-(4-nitro-phenyl)-furan-2ylmethylene]-2-thioxo-dihydro-pyrimidine-4,6-dione] was tested. Which inhibition at 2 µM [1, 7] did it give?
A: 59%

Q: And the inhibition at 2 µM [2]?
A: 55%

Q: What about the inhibition at 10 µM [3] of the same compound?
A: 46.3%

Q: With `O=C1NC(=S)NC(=O)C1=Cc1ccc(-c2ccc(Cl)cc2)o1` [Compound 22e, 5-[5-(4-chloro-phenyl)-furan-2ylmethylene]-2-thioxo-dihydro-pyrimidine-4,6-dione] as the compound, how does the inhibition at 0.5 µM [1, 7] read?
A: 33%

Q: And the inhibition at 2 µM [1, 7]?
A: 69%

Q: And the inhibition at 2 µM [2]?
A: 15%

Q: And the inhibition at 10 µM [3]?
A: 82.9%

Q: And the “Tumor growth inhibition rate A375(B-Raf^V600E)” value [3]?
A: potent growth inhibition activity

Q: And the inhibition at 10 µM [4]?
A: 9%

Q: For `Cc1ccc(-c2ccc(C=C3C(=O)NC(=S)NC3=O)o2)cc1` [Compound 22g, 5-[5-(4-methyl-phenyl)-furan-2ylmethylene]-2-thioxo-dihydro-pyrimidine-4,6-dione], which inhibition at 0.5 µM [1, 7] is on record?
A: 50%

Q: And the inhibition at 2 µM [1, 7]?
A: 59%

Q: And the inhibition at 2 µM [2]?
A: 17%

Q: And the inhibition at 10 µM [3]?
A: 84%

Q: And the “Tumor growth inhibition rate A375(B-Raf^V600E)” value ([3]; 10 µM)?
A: potent growth inhibition activity; also recorded: virtually complete growth inhibition

Q: And the inhibition at 10 µM [4]?
A: 3.6%

Q: With `COc1ccc(-c2ccc(C=C3C(=O)NC(=S)NC3=O)o2)cc1` [Compound 22h, 5-[5-(4-methoxy-phenyl)-furan-2ylmethylene]-2-thioxo-dihydro-pyrimidine-4,6-dione] as the compound, how does the IC50 [1] read?
A: 2690 nM

Q: What about the IC50 [2] of the same compound?
A: 3690 nM

Q: What about the inhibition at 10 µM [3] of the same compound?
A: 94.4%

Q: What about the “Tumor growth inhibition rate A375(B-Raf^V600E)” value ([3]; 10 µM) of the same compound?
A: potent growth inhibition activity; also recorded: virtually complete growth inhibition

Q: What about the inhibition at 10 µM [4] of the same compound?
A: 13%

Q: How did the IC50 [1] turn out when `O=C1NC(=S)NC(=O)C1=Cc1ccc(-c2ccc3ccccc3c2)o1` [Compound 22j, 5-[5-(2-naphthyl)-furan-2ylmethylene]-2-thioxo-dihydro-pyrimidine-4,6-dione] was run?
A: 1070 nM

Q: What about the IC50 [2] of the same compound?
A: 1930 nM

Q: And the inhibition at 10 µM [3]?
A: 6.9%

Q: `O=C1NC(=S)NC(=O)C1=Cc1ccc(-c2cc(C(F)(F)F)ccc2Cl)o1` [Compound 22k, 5-[5-(2-chloro-5-trifluomethyl)-furan-2ylmethylene]-2-thioxo-dihydro-pyrimidine-4,6-dione] was tested. Which “Tumor growth inhibition rate A375(B-Raf^V600E)” value [3] did it give?
A: 18.3

Q: Which “Inhibition rate B-Raf^V600E” value [1] does the source give for `O=C1NC(=S)NC(=O)C1=Cc1ccc(-c2cccc(C(F)(F)F)c2)o1` [Compound 22l, 5-[5-(3-trifluomethyl-phenyl)-furan-2ylmethylene]-2-thioxo-dihydro-pyrimidine-4,6-dione] here?
A: 45%

Q: What about the “Inhibition rate B-Raf” value [2] of the same compound?
A: 30%

Q: For `O=C1NC(=S)NC(=O)C1=Cc1ccc(-c2ccc(Cl)cc2[N+](=O)[O-])o1` [Compound 22n, 5-[5-(2-nitro-4-chloro)-furan-2ylmethylene]-2-thioxo-dihydro-pyrimidine-4,6-dione], which “Inhibition rate B-Raf^V600E” value [1] is on record?
A: 22%

Q: And the “Inhibition rate B-Raf” value [2]?
A: 20%

Q: Which results are given for `O=C1NC(=S)NC(=O)C1=Cc1ccc(-c2ccc(Cl)cc2C(F)(F)F)o1` [Compound 22o, 5-[5-(2-trifluomethyl-4-chloro)-furan-2ylmethylene]-2-thioxo-dihydro-pyrimidine-4,6-dione]?
A: Inhibition rate B-Raf^V600E [1]: 49%; Inhibition rate B-Raf [2]: 24%

Q: `O=C1NC(=S)NC(=O)C1=Cc1ccc(-c2ccc(Cl)c(C(F)(F)F)c2)o1` [Compound 22p, 5-[5-(3-trifluomethyl-4-chloro)-furan-2ylmethylene]-2-thioxo-dihydro-pyrimidine-4,6-dione] was tested. Which “Inhibition rate B-Raf^V600E” value [1] did it give?
A: 48%

Q: And the “Inhibition rate B-Raf” value [2]?
A: 37%
